Reference: patent publication US11292767B2, “Heterocyclic inhibitors of MCT4” (Vettore, LLC, priority 2016, dated 2022)

Columns and labels:
MCT1 = MCT1 (Homo sapiens (Human), UniProt P53985); assay: Assay 4: MCT1-mediated lactate transport in BT20 breast cancer cells; format: cell-based; conditions: lactate transport (Table 27)
Experimental: Preparing BCECF-Loaded Cells
10 µL of a 30 mM DMSO stock of BCECF-AM ester (Life Technologies) is added and the cells are incubated at 37° C. for 5 min. The cells are pelleted (300 g, 5 min), washed once with 1 mL Tyrode's Solution, pH 7.4, re-pelleted (300 g, 5 min), and resuspended in 1 mL Tyrode's Solution, pH 7.4.
Assay 4: MCT1-Mediated Lactate Transport in BT20 Breast Cancer Cells.
Preparation of BCECF loaded cells are as described for Assay 1. Lactate transport assay is as described for Assay 1, except 10 mM L-lactate (rather than 50 mM) is added.

[1] = Metabolic stability in human liver microsomes (in vitro t1/2); format: in vitro ADME; conditions: human liver microsomes 0.5 mg/mL, 2 μM compound; for Human microsome % 60 min: % remaining at 60 min
Experimental: (§1) Metabolic Stability Assays The following are assays that may be used to evaluate the metabolic stability of compounds of Formula (I) in human, rat, or mouse microsomes. The assays follow a common procedure recited below. 1. […] Two separated experiments were performed as follows. a) With NADPH: 10 μL of 20 mg/mL liver microsomes and 40 μL of 10 mM NADPH were added to the incubations. […] The final concentration of microsomes was 0.5 mg/mL. 3. The reaction was started with the addition of 4 μL of 200 μM control compound or test compound solutions. Verapamil was used as positive control in this study. The final concentration of test compound or control compound was 2 μM. 4. Aliquots of 50 μL were taken from the reaction solution at 0, 15, 30, 45 and 60 min. […] Samples were centrifuged at 3,220 g for 40 minutes. A 90 μL aliquot of the supernatant was mixed with 90 μL of ultra-pure H2O and then used for LC-MS/MS analysis. 5. Data analysis. All calculations were carried out using Microsoft Excel. Peak areas were determined from extracted ion chromatograms. The slope value, k, was determined by linear regression of the natural logarithm of the remaining percentage of the parent drug vs. incubation time curve. The in vitro half-life (in vitro t1/2) was determined from the slope value: in vitro t1/2=−(0.693)/k.

[2] = Metabolic stability in mouse liver microsomes (in vitro t1/2); format: in vitro ADME; conditions: mouse liver microsomes 0.5 mg/mL, 2 μM compound; for Mouse microsome % 60 min: % remaining at 60 min
Experimental: as §1

[3] = Metabolic stability in rat liver microsomes (in vitro t1/2); format: in vitro ADME; conditions: rat liver microsomes 0.5 mg/mL, 2 μM compound; for Rat microsome % 60 min: % remaining at 60 min
Experimental: as §1

[4] = Pharmacokinetic assay in mouse (IV 3 mg/kg, PO 10 mg/kg); format: in vivo; conditions: male, CD1, mouse, plasma, read-out: Mouse F (%)
Excerpt: (§2) Pharmacokinetic Assays in Mouse and Rat
(§3) The following are assays that may be used to evaluate the pharmacokinetic properties of Formula (I) in mouse or rat. The assays follow a common procedure recited below.
(§4) 1. […] For PO (oral gavage), DMSO/PEG400 (10:90). Formulations freshly prepared on the day of dosing or prior to dosing. Storage at room temperature.
(§5) 2. Test Species: For Mouse: Male CD1 strain, approximately 6-8 weeks in age, approximately 20-30 g. For Rat: Male Sprague-Dawley strain, approximately 6-8 weeks in age, approximately 200-300 g.
(§6) 3. Dose Level: For IV, 3 mg/kg. For PO, 10 mg/kg.
(§7) 4. Number of animals: 3 per assay.
(§8) 5. PK time points: For IV (plasma): 5 min, 15 min, 1, 2, 4, 6, 8, 24 h post dose. For PO (plasma): 15 min, 30 min, 1, 2, 4, 6, 8, 24 h post dose.
(§9) 6. Blood Sample Collection and Processing. Blood was collected (˜0.2 mL per time point) from jugular vein. Blood of each sample was transferred into plastic micro centrifuge tubes containing anticoagulant of EDTA-K2. Blood samples were centrifuged at 2,000 g for 5 minutes at 4° C. to obtain plasma.
(§10) 7. Samples Analysis: Plasma samples were analyzed using LC/MS/MS method, and pharmacokinetic parameters (half-life: t1/2; oral bioavailability: F; volume of distribution: Vss).

[5] = Pharmacokinetic assay in rat (IV 3 mg/kg, PO 10 mg/kg); format: in vivo; conditions: male, Sprague-Dawley, plasma, read-out: Rat F (%)
Excerpt: as §2, §3, §4, §5, §6, §7, §8, §9, §10

CFA-induced arthritis [6] = assay: Adjuvant-induced arthritis model in rat: Difference of Weight Bearing test (DWB); format: in vivo; conditions: SD rat, PO 3 days post CFA, compared to dexamethasone
CFA-induced arthritis [7] = assay: Adjuvant-induced arthritis model in rat: Mechanical Allodynia test (MA); format: in vivo; conditions: SD rat, PO 3 days post CFA, compared to dexamethasone

Chain of MCT1 (P53985 whole entry): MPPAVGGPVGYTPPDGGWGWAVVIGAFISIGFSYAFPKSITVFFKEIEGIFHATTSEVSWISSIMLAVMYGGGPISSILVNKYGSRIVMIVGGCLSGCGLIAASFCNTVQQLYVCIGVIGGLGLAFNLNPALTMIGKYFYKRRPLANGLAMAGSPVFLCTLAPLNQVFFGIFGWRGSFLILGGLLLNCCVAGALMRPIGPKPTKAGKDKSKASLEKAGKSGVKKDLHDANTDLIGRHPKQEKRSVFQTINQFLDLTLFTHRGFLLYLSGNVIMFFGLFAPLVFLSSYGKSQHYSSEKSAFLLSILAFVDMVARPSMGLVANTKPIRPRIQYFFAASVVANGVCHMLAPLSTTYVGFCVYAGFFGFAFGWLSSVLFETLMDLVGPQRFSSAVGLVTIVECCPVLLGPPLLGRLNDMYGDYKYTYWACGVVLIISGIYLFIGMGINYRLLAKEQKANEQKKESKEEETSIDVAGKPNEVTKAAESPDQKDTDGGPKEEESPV
Chain of MCT1 (P35613 140-385 partner): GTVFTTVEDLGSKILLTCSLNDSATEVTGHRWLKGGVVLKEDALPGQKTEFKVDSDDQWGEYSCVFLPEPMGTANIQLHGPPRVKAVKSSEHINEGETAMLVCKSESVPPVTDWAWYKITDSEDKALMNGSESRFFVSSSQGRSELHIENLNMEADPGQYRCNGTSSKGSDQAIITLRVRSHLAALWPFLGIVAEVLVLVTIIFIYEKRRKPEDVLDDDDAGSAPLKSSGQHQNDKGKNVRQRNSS

Row | SMILES | IC50 (MCT1) [nM] | bioavailability [4] [%] | bioavailability [5] [%] | further results
1 | CC(C)(OCc1cc(-c2cccc(OCC(F)(F)F)c2)n(Cc2ccccc2Cl)n1)C(=O)O [Example 43, 2-([1-[(2-Chlorophenyl)methyl]-5-[3-(2,2,2-trifluoroethoxy)phenyl]1H-pyrazol-3-yl]methoxy)-2-methylpropanoic acid] | > 33000 | – | – | –
2 | CC(C)(OCc1cc(-c2cscn2)n(Cc2ccccc2Cl)n1)C(=O)O [Example 47, 2-([1-[(2-Chlorophenyl)methyl]-5-(1,3-thiazol-4-yl)-1H-pyrazol-3-yl]methoxy)-2-methylpropionic acid] | > 100000 | – | – | –
3 | COc1cccc(-c2cc(COC(C)(C)C(=O)O)nn2Cc2ccccc2)c1 [Example 53, 2-([1-benzyl-5-(3-methoxyphenyl)-1H-pyrazol-3-yl]methoxy)-2-methyl-propanoic acid] | > 100000 | – | – | –
4 | COc1cccc(-c2cc(COC(C)(C)C(=O)O)nn2-c2ccccc2Cl)c1 [Example 57, 2-([1-(2-chlorophenyl)-5-(3-methoxyphenyl)-1H-pyrazol-3-yl]methoxy)-2-methylpropanoic acid] | > 133000 | – | – | Human microsome % 60 min [1]: 80%; Mouse microsome % 60 min [2]: 100%
5 | CC(C)C(=O)Nc1cccc(-c2cc(COC(C)(C)C(=O)O)nn2Cc2ccccc2Cl)c1 [Example 69, 2-([1-[(2-Chlorophenyl)methyl]-5-[3-(2-methylpropanamido)phenyl]-1H-pyrazol-3-yl]methoxy)-2-methylpropanoic acid] | > 100000 | – | – | –
6 | CC(C)(OCc1cc(-c2cccc(S(C)(=O)=O)c2)n(Cc2ccccc2Cl)n1)C(=O)O [Example 70, 2-([1-[(2-Chlorophenyl)methyl]-5-(3-methanesulfonylphenyl)-1H-pyrazol-3-yl]methoxy)-2-methylpropanoic acid] | > 100000 | – | – | –
7 | CC(C)CNc1cccc(-c2cc(COC(C)(C)C(=O)O)nn2Cc2ccccc2Cl)c1 [Example 73, 2-([1-[(2-chlorophenyl)methyl]-5-[3-[(2-methylpropyl)amino]phenyl]-1H-pyrazol-3-yl]methoxy)-2-methyl-propanoic acid] | > 11000 | – | – | –
8 | CC(C)NC(=O)c1cccc(-c2cc(COC(C)(C)C(=O)O)nn2Cc2ccccc2Cl)c1 [Example 74, 2-([1-[(2-Chlorophenyl)methyl]-5-[3-[(propan-2-yl)carbamoyl]phenyl]-1H-pyrazol-3-yl]methoxy)-2-methyl-propanoic acid] | > 100000 | – | – | –
9 | CC(C)(OCc1cc(-c2cccc(OC3CCC3)c2)n(-c2ccccc2N2CCC2)n1)C(=O)O [Example 260, 2-([1-[2-(Azetidin-1-yl)phenyl]-5-(3-cyclobutoxyphenyl)-1H-pyrazol-3-yl]methoxy)-2-methylpropanoic acid] | – | 86 | 85 | Difference in Weight Bearing, Minimal Efficacious Dose (CFA-induced arthritis [6]): 1 mg/kg; Mechanical Allodynia (Von Frey), Minimal Efficacious Dose (CFA-induced arthritis [7]): 1 mg/kg

More lines, main results first:

Row | IC50 (MCT1) [nM] | bioavailability [4] [%] | bioavailability [5] [%] | SMILES | further results
10 | > 100000 | – | – | CC(C)(OCc1cc(Nc2ccccc2)n(Cc2ccccc2Cl)n1)C(=O)O [Example 75, 2-([1-[(2-chlorophenyl)methyl]-5-(phenylamino)-1H-pyrazol-3-yl]methoxy)-2-methylpropanoic Acid] | –
11 | – | 24 | 72 | Cn1ncc2cccc(-n3nc(COC(C)(C)C(=O)O)cc3-c3cccc(OCC(C)(C)C)c3)c21 [Example 167, 2-([5-[3-(2,2-dimethylpropoxy)phenyl]-1-(1-methyl-1H-indazol-7-yl)-1H-pyrazol-3-yl]methoxy)-2-methyl-propanoic acid] | Human microsome % 60 min [1]: 84%; Rat microsome % 60 min [3]: 72%; Mouse microsome % 60 min [2]: 97%
12 | – | 57 | 55 | CCOc1ccccc1Cn1nc(COC(C)(C)C(=O)O)cc1-c1cc(OC)cc(OC)c1 [Example 211, 2-([5-(3,5-Dimethoxyphenyl)-1-[(2-ethoxyphenyl)methyl]-1H-pyrazol-3-yl]-methoxy)-2-methylpropanoic acid] | Human microsome % 60 min [1]: 78%; Rat microsome % 60 min [3]: 57%; Mouse microsome % 60 min [2]: 43%
13 | – | 100 | 29 | CCn1ncc2ccc(-c3cc(CO[C@](C)(CC)C(=O)O)nn3Cc3ccccc3Cl)cc21 [Example 220, (2R)-2-([1-[(2-chlorophenyl)methyl]-5-(1-ethyl-1H-indazol-6-yl)-1H-pyrazol-3-yl]methoxy)-2-methylbutanoic acid] | Human microsome t1/2, min ([1]; in vitro t1/2): ∞; Rat microsome % 60 min [3]: 86%; Difference in Weight Bearing, Minimal Efficacious Dose (CFA-induced arthritis [6]): 3 mg/kg; Mechanical Allodynia (Von Frey), Minimal Efficacious Dose (CFA-induced arthritis [7]): 3 mg/kg
14 | – | 100 | 94 | CCn1ncc2ccc(-c3cc(COC(C)(C)C(=O)O)nn3-c3ccccc3N3CCC3)cc21 [Example 228, 2-([1-[2-(Azetidin-1-yl)phenyl]-5-(1-ethyl-1H-indazol-6-yl)-1H-pyrazol-3-yl]methoxy)-2-methylpropanoic acid] | Human microsome % 60 min [1]: 71%; Rat microsome % 60 min [3]: 91%; Mouse microsome % 60 min [2]: 96%
15 | – | 76 | 76 | CCn1ncc2ccc(-c3cc(CO[C@@](C)(CC)C(=O)O)nn3Cc3ccccc3Cl)cc21 [Example 257, (S)-2-((1-(2-chlorobenzyl)-5-(1-ethyl-1H-indazol-6-yl)-1H-pyrazol-3-yl)methoxy)-2-methylbutanoic acid] | Human microsome % 60 min [1]: 96%; Rat microsome t1/2, min ([3]; in vitro t1/2): ∞; Mouse microsome t1/2, min ([2]; in vitro t1/2): ∞
16 | – | 100 | 100 | CC[C@@](C)(OCc1cc(-c2cccc(OC3CC3)c2)n(-c2ccccc2N2CCC2)n1)C(=O)O [Example 266] | Difference in Weight Bearing, Minimal Efficacious Dose (CFA-induced arthritis [6]): 3 mg/kg; Mechanical Allodynia (Von Frey), Minimal Efficacious Dose (CFA-induced arthritis [7]): 3 mg/kg
17 | – | 64 | 54 | CCCn1ncc2ccc(-c3cc(CO[C@](C)(CC)C(=O)O)nn3-c3ccccc3N3CCC3)cc21 [Example 267, (2R)-2-([1-[2-(azetidin-1-yl)phenyl]-5-(1-propyl-1H-indazol-6-yl)-1H-pyrazol-3-yl]methoxy)-2-methylbutanoic acid] | Difference in Weight Bearing, Minimal Efficacious Dose (CFA-induced arthritis [6]): 3 mg/kg; Mechanical Allodynia (Von Frey), Minimal Efficacious Dose (CFA-induced arthritis [7]): 3 mg/kg
18 | – | 77 | 57 | CCn1ncc2ccc(-c3cc(CO[C@](C)(CC)C(=O)O)nn3-c3ccccc3N3CCCC3)cc21 [Example 268, (2R)-2-([5-(1-ethyl-1H-indazol-6-yl)-1-[2-(pyrrolidin-1-yl)phenyl]-1H-pyrazol-3-yl]methoxy)-2-methylbutanoic acid] | Difference in Weight Bearing, Minimal Efficacious Dose (CFA-induced arthritis [6]): 1 mg/kg; Mechanical Allodynia (Von Frey), Minimal Efficacious Dose (CFA-induced arthritis [7]): 1 mg/kg
19 | – | 100 | – | CCn1ncc2ccc(-c3cc(CO[C@](C)(CC)C(=O)O)nn3-c3ccccc3N3CCC3)cc21 [Example 269, (2R)-2-([1-[2-(Azetidin-1-yl)phenyl]-5-(1-ethyl-1H-indazol-6-yl)-1H-pyrazol-3-yl]methoxy)-2-methylbutanoic acid] | –
